Laboratory results: ChEMBL document CHEMBL1154214, “Scalarane sesterterpenoids: semisynthesis and biological activity” (J Nat Prod, 2009)

Tests used:
SK-OV-3 = assay: Cytotoxicity against human SKOV3 cells after 48 hrs by Neutral red assay; assay type: functional, cell-based
BT-549 = assay: Cytotoxicity against human BT549 cells after 48 hrs by Neutral red assay; assay type: functional, cell-based
Vero = assay: Cytotoxicity against african green monkey Vero cells after 48 hrs by Neutral red assay; assay type: cell-based, Chlorocebus sabaeus
Staphylococcus aureus = assay: Antimicrobial activity against methicillin resistant Staphylococcus aureus ATCC 43300; assay type: functional, organism-based
SK-MEL = assay: Cytotoxicity against human SK-MEL cells after 48 hrs by Neutral red assay; assay type: functional, cell-based
[1] = tested on: Mycobacterium intracellulare; assay: Antimicrobial activity against […] Mycobacterium intracellular ATCC 23068; assay type: functional, organism-based
[2] = Homo sapiens, SK-OV-3, 48 h, read-out: IC50
[3] = Homo sapiens, BT-549, 48 h, read-out: IC50
[4] = Chlorocebus sabaeus, Vero, 48 h, read-out: IC50
[5] = Homo sapiens, SK-MEL, 48 h, read-out: IC50
[6] = Mycobacterium intracellulare, ATCC 23068, read-out: IC50
[7] = Staphylococcus aureus, ATCC 43300, read-out: IC50

Row | SMILES | IC50 (SK-OV-3; [2]) [µM] | IC50 (BT-549; [3]) [µM] | IC50 (Vero; [4]) [µM] | IC50 (Staphylococcus aureus) | IC50 (SK-MEL; [5]) [µM] | IC50 [1, 6] [µM] | IC50 (Staphylococcus aureus; [7]) [µM] | IC50 ([1]; Mycobacterium intracellulare, ATCC 23068) [µM] | IC50 (SK-OV-3; sk-ov-3) | IC50 (BT-549; bt-549) | IC50 (Vero; vero) | IC50 (SK-MEL; sk-mel) | IC50 [1]
1 | CC(=O)O[C@@H]1OC=C2[C@@H](OC(C)=O)C[C@H]3[C@]4(C)CC[C@H]5C(C)(C)CCC[C@]5(C)[C@H]4C[C@@H](O)[C@]3(C)[C@H]21 [HETERONEMIN] | 3.4 | 11.2 | 8.2 | Not Active | 15.3 | 2.04 | – | – | – | – | – | – | –
2 | O=C(O)c1cn(C2CC2)c2cc(N3CCNCC3)c(F)cc2c1=O [CIPROFLOXACIN] | – | – | – | – | – | – | 0.14 | 0.47 | – | – | – | – | –
3 | CO[C@@H]1C[C@H]2[C@]3(C)CC[C@H]4C(C)(C)CCC[C@]4(C)[C@H]3C[C@@H](O)[C@]2(C)c2cocc21 [16-O-METHYLSESTERSTATIN 4] | – | – | – | Not Active | – | – | – | – | Not Active | Not Active | Not Active | Not Active | Not Active
4 | CC1(C)CCC[C@]2(C)[C@H]3C[C@@H](O)[C@]4(C)c5cocc5[C@@H](O)C[C@H]4[C@]3(C)CC[C@@H]12 [SESTERSTATIN 5] | – | – | – | Not Active | – | – | – | – | Not Active | Not Active | Not Active | Not Active | Not Active
5 | CC(=O)O[C@@H]1OCC2[C@@H](OC(C)=O)C[C@H]3[C@]4(C)CC[C@H]5C(C)(C)CCC[C@]5(C)[C@H]4C[C@@H](O)[C@]3(C)[C@H]21 (some centres undefined) | 18.3 | 15.9 | 36.7 | Not Active | > 37.3 | – | – | – | – | – | – | – | Not Active
6 | CC1(C)CCC[C@]2(C)[C@H]3CC(=O)[C@]4(C)[C@@H](C=O)C(C=O)=CC[C@H]4[C@]3(C)CC[C@@H]12 | 41.6 | 15.6 | 18.2 | – | 14.6 | – | 27.8 | – | – | – | – | – | Not Active
7 | CO[C@@H]1O[C@@H](OC)[C@H]2C1=CC[C@H]1[C@]3(C)CC[C@H]4C(C)(C)CCC[C@]4(C)[C@H]3C[C@@H](O)[C@]21C | – | – | – | Not Active | – | – | – | – | Not Active | Not Active | Not Active | Not Active | Not Active
8 | COc1cccc2c1C(=O)c1c(O)c3c(c(O)c1C2=O)C[C@@](O)(C(=O)CO)C[C@@H]3O[C@H]1C[C@H](N)[C@H](O)[C@H](C)O1 [DOXORUBICIN] | 0.8 | 1.2 | 6.3 | – | 1.2 | – | – | – | – | – | – | – | –
9 | CC(=O)O[C@@H]1C[C@@H]2[C@@]3(C)CCCC(C)(C)[C@@H]3CC[C@@]2(C)[C@@H]2CC=C(C=O)[C@H](C=O)[C@@]12C | 23.3 | 21 | 22.2 | – | > 42.7 | – | 6.3 | – | – | – | – | – | Not Active
10 | CC1(C)CCC[C@]2(C)[C@H]3CC(=O)[C@]4(C)[C@H](C=O)C(C=O)=CC[C@H]4[C@]3(C)CC[C@@H]12 | 31.2 | 15.6 | 15.6 | – | 14.3 | – | 30.1 | – | – | – | – | – | Not Active
11 | CC1(C)CCC[C@]2(C)[C@H]3C[C@@H](O)[C@]4(C)[C@@H](C=O)C(C=O)=CC[C@H]4[C@]3(C)CC[C@@H]12 | 31 | 19.4 | 19.4 | – | 26.4 | 38.8 | 22 | – | – | – | – | – | –
12 | CC1(C)CCC[C@]2(C)[C@H]3C[C@@H](O)[C@]4(C)C(CO)C(CO)=CC[C@H]4[C@]3(C)CC[C@@H]12 (some centres undefined) | – | – | – | Not Active | – | – | – | – | Not Active | Not Active | Not Active | Not Active | Not Active
13 | CO[C@H]1O[C@@H](OC)[C@H]2C1=CC[C@H]1[C@]3(C)CC[C@H]4C(C)(C)CCC[C@]4(C)[C@H]3C[C@@H](O)[C@]21C | – | – | – | Not Active | – | – | – | – | Not Active | Not Active | Not Active | Not Active | Not Active
14 | CC1(C)CCC[C@]2(C)[C@H]3C[C@@H](O)[C@]4(C)c5cocc5C=C[C@H]4[C@]3(C)CC[C@@H]12 | – | – | – | Not Active | – | – | – | – | Not Active | Not Active | Not Active | Not Active | Not Active
15 | CC1(C)CCC[C@]2(C)[C@H]3C[C@@H](O)[C@]4(C)[C@H]5COC(=O)C5=CC[C@H]4[C@]3(C)CC[C@@H]12 | – | – | – | Not Active | – | – | – | – | Not Active | Not Active | Not Active | Not Active | Not Active
16 | CC(=O)O[C@H]1C[C@H]2[C@]3(C)CC[C@H]4C(C)(C)CCC[C@]4(C)[C@H]3C[C@@H](O)[C@]2(C)c2cocc21 [SCALARAFURAN] | – | – | – | Not Active | – | – | – | – | Not Active | Not Active | Not Active | Not Active | Not Active
17 | CC1(C)CCC[C@]2(C)[C@H]3C[C@@H](O)[C@]4(C)[C@H](C=O)C(C=O)=CC[C@H]4[C@]3(C)CC[C@@H]12 | 19.4 | 12.9 | 20.7 | – | 18.6 | – | 3.8 | – | – | – | – | – | Not Active
18 | CC(=O)O[C@@H]1OC=C2[C@@H](OC(C)=O)C[C@H]3[C@]4(C)CC[C@H]5C(C)(C)CCC[C@]5(C)[C@H]4C[C@@H](OC(C)=O)[C@]3(C)[C@H]21 [HETERONEMIN ACETATE] | 18.8 | 18.8 | 9 | Not Active | 16.7 | 18.8 | – | – | – | – | – | – | –
19 | CC(=O)O[C@@H]1OC=C2[C@@H](OC(C)=O)C[C@H]3[C@]4(C)CC[C@H]5C(C)(C)CCC[C@]5(C)[C@H]4CC(=O)[C@]3(C)[C@H]21 | > 37.6 | > 37.6 | > 37.6 | Not Active | – | 5.1 | – | – | – | – | – | Not Active | –
20 | CC(=O)O[C@@H]1C[C@@H]2[C@@]3(C)CCCC(C)(C)[C@@H]3CC[C@@]2(C)[C@@H]2CC=C3C(=O)O[C@@H](O)[C@@H]3[C@@]12C | – | – | – | Not Active | – | – | – | – | Not Active | Not Active | Not Active | Not Active | Not Active
